Active and inactive are the calls of the source. No cut-off for these calls is given here.
What was measured:
[1] = Toxicity in dog purkinje fibres assessed as drug-induced change in action potential; assay type: tissue-based, Canis lupus familiaris, Purkinje fiber
[2] = Metabolic stability in rat liver S9 fraction assessed as compound remaining after 2 hrs; assay type: ADME, subcellular; details: read-out: Stability
[3] = Metabolic stability in dog liver S9 fraction assessed as compound remaining after 2 hrs; assay type: ADME, subcellular, Canis lupus familiaris; details: read-out: Stability
[4] = Metabolic stability in monkey liver S9 fraction assessed as compound remaining after 2 hrs; assay type: ADME, subcellular, Macaca mulatta; details: rhesus monkey, read-out: Stability
[5] = Volume of distribution in Sprague-Dawley rat at 0.8 mg/kg, iv; assay type: ADME, organism-based; design: dose 0.8 mg/kg, route intravenous; details: in vivo
[6] = Clearance in Sprague-Dawley rat at 0.8 mg/kg, iv; assay type: ADME, organism-based; design: dose 0.8 mg/kg, route intravenous; details: in vivo
[7] = Tmax in Sprague-Dawley rat at 5 mg/kg, po; assay type: ADME, organism-based; design: dose 5 mg/kg, route oral; details: in vivo
[8] = Oral bioavailability in Sprague-Dawley rat at 5 mg/kg; assay type: ADME, organism-based; details: in vivo
[9] = Clearance in cynomolgus monkey at 0.5 mg/kg, iv; assay type: ADME, organism-based, Macaca fascicularis; design: dose 0.5 mg/kg, route intravenous; details: in vivo
Aurora kinase A = Aurora kinase A (Homo sapiens, UniProt O14965); assay: Inhibition of human Aurora-A using ATP as substrate
[10] = molecular target: Tyrosine-protein kinase BTK (Homo sapiens, UniProt Q06187); assay: Inhibition of human BTK using ATP as substrate
[11] = molecular target: Casein kinase I isoform alpha (Homo sapiens, UniProt P48729); assay: Inhibition of CK1 using ATP as substrate
Casein kinase I isoform alpha, sequence (P48729 whole entry, canonical isoform): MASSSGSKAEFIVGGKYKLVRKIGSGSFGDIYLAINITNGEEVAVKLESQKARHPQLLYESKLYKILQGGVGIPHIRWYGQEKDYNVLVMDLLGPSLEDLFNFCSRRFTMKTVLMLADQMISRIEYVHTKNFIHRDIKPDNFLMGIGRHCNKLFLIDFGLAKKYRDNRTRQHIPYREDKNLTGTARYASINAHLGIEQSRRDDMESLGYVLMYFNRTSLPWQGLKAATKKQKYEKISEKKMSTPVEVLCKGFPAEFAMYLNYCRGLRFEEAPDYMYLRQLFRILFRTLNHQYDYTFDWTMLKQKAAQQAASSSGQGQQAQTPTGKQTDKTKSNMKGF

[12] = molecular target: Proto-oncogene tyrosine-protein kinase Src (Homo sapiens, UniProt P12931); assay: Inhibition of human cSrc using ATP as substrate
Proto-oncogene tyrosine-protein kinase Src, sequence (P12931 2-536 limits assumed): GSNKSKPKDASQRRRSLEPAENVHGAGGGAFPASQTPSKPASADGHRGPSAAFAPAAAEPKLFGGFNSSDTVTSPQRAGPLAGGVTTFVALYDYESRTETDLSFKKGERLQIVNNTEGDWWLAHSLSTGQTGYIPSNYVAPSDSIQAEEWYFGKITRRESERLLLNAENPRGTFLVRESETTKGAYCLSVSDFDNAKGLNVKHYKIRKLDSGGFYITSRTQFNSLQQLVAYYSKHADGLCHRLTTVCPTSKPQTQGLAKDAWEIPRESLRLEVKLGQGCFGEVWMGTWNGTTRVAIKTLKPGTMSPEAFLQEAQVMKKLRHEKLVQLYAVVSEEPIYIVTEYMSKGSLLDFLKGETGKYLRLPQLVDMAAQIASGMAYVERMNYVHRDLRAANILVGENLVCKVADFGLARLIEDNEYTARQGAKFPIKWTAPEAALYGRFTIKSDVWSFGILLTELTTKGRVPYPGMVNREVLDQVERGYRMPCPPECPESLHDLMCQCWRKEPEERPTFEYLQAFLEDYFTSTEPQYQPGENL

[13] = molecular target: Fibroblast growth factor receptor 3 (Homo sapiens, UniProt P22607); assay: Inhibition of human FGFR3 using ATP as substrate
Fibroblast growth factor receptor 3, sequence (P22607 whole entry): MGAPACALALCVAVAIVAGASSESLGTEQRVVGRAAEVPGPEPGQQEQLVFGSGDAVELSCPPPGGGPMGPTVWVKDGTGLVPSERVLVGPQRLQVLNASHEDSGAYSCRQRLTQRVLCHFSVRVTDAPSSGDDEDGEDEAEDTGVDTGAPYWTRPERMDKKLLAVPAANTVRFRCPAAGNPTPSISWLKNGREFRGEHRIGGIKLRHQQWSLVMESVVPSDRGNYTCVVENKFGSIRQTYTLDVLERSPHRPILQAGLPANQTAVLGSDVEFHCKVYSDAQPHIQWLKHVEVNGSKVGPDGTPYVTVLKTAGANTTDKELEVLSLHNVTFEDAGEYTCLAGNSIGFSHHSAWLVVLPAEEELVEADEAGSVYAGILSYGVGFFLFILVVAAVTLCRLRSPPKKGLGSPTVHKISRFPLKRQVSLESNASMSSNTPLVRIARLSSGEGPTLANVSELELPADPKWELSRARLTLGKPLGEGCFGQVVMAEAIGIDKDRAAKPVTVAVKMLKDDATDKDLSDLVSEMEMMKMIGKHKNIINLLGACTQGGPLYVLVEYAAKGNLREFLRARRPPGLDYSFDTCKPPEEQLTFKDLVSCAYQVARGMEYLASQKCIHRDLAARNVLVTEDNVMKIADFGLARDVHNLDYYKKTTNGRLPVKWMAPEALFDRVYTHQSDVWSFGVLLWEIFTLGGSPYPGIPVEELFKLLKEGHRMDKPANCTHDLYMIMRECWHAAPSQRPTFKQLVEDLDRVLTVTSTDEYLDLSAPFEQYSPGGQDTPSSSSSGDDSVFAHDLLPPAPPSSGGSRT

[14] = molecular target: Vascular endothelial growth factor receptor 1 (Homo sapiens, UniProt P17948); assay: Inhibition of human VEGFR1 using ATP as substrate
Vascular endothelial growth factor receptor 1, sequence (P17948 whole entry): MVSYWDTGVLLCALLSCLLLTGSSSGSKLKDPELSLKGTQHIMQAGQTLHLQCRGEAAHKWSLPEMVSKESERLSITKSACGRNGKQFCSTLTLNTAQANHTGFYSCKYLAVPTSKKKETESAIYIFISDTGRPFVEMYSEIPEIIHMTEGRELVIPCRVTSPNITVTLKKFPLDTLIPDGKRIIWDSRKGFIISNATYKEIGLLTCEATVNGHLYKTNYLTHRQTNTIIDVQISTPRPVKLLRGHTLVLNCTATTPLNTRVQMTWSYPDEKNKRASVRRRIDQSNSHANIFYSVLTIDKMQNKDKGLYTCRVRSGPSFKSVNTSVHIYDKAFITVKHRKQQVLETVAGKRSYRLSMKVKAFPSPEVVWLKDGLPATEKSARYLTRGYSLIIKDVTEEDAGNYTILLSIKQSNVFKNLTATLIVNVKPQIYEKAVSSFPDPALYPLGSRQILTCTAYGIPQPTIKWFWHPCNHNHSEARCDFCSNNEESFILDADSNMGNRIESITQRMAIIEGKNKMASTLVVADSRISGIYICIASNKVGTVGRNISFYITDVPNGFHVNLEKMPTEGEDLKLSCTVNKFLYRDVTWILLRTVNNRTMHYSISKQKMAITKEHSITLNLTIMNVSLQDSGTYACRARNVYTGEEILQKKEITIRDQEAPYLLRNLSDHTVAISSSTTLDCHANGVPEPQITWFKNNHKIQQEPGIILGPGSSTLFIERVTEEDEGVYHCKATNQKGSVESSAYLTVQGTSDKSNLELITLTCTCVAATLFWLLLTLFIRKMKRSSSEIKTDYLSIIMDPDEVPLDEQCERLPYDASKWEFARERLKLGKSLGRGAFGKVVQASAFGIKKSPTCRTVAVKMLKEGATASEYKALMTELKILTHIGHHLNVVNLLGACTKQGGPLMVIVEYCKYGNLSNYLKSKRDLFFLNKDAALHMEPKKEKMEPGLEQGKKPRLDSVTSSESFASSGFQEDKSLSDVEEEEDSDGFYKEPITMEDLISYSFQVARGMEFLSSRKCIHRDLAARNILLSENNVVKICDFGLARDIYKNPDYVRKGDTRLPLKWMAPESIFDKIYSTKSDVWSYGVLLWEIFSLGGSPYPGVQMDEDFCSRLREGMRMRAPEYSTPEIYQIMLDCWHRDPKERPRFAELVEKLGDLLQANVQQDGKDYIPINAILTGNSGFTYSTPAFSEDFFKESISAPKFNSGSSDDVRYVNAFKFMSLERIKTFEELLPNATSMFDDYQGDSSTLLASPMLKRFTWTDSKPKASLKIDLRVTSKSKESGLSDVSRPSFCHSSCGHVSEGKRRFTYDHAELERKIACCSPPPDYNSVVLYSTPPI

[15] = molecular target: Proto-oncogene tyrosine-protein kinase receptor Ret (Homo sapiens, UniProt P07949); assay: Inhibition of human RET using ATP as substrate
Proto-oncogene tyrosine-protein kinase receptor Ret, sequence (P07949 whole entry): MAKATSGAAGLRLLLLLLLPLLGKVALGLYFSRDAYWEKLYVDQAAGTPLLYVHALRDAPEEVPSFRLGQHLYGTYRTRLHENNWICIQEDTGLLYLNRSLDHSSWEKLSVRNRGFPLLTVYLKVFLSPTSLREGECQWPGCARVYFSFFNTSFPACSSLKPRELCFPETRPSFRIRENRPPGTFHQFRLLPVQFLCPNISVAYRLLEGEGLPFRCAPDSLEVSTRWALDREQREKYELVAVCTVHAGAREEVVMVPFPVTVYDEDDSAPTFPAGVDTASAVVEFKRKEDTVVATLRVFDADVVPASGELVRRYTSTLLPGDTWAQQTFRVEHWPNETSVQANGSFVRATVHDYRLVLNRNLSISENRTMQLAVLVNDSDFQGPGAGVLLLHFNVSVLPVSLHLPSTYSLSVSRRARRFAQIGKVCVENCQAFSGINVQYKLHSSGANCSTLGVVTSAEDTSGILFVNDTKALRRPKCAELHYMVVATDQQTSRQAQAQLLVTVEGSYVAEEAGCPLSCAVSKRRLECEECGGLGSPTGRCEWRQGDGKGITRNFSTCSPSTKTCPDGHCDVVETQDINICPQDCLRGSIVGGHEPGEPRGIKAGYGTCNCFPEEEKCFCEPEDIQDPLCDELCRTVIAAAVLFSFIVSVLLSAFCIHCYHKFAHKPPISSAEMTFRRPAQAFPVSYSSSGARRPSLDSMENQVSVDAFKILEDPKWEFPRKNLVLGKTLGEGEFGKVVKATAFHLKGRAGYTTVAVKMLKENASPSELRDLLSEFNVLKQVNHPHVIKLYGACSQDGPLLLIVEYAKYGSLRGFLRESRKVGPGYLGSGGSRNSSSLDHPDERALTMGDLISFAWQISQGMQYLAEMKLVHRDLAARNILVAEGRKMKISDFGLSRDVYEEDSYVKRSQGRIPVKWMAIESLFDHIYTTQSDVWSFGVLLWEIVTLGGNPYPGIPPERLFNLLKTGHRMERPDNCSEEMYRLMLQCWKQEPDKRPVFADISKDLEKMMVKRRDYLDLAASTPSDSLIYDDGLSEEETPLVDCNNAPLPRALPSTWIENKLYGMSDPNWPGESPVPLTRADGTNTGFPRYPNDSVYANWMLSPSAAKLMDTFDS

[16] = molecular target: Tyrosine-protein kinase ABL1 (Homo sapiens) (UniProt P00519); assay: Inhibition of ABL at 1 uM
[17] = molecular target: Glycogen synthase kinase-3 beta (Homo sapiens) (UniProt P49841); assay: Inhibition of GSK3beta at 1 uM
[18] = molecular target: Adenosine receptor A3 (Homo sapiens) (UniProt P0DMS8); assay: Inhibition of adenosine A3 receptor at 10 uM
Adenosine receptor A3 (Homo sapiens), sequence (P0DMS8 whole entry): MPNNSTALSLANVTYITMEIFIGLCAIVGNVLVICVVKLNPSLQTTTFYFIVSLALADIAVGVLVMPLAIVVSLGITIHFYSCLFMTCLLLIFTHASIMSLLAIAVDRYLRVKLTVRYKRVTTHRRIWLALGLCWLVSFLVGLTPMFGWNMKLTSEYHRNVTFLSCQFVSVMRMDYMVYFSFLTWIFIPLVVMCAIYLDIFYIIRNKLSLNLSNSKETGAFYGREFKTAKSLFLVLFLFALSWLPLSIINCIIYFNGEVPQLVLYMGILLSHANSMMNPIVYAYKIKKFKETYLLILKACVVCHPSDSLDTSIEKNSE

[19] = molecular target: Muscarinic acetylcholine receptor M2 (Homo sapiens) (UniProt P08172); assay: Inhibition of muscarinic M2 receptor at 10 uM
Muscarinic acetylcholine receptor M2 (Homo sapiens), sequence (P08172 whole entry): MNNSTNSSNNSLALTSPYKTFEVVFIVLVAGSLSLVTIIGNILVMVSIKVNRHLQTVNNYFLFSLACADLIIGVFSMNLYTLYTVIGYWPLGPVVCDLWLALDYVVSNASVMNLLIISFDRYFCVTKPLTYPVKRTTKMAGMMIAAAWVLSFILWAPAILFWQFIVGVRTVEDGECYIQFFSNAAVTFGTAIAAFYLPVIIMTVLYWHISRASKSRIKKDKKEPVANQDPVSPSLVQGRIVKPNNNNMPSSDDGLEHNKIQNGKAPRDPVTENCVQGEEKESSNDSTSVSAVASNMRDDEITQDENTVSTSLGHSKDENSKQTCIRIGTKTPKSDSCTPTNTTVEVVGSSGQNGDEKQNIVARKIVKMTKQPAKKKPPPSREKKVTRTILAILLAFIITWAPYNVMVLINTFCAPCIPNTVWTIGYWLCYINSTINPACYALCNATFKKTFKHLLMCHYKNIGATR

HUVEC [20] = assay: Antiangiogenic activity in HUVEC assessed as inhibition of angiopoietin 1-induced chemotaxis at > = 50 nM by boyden chamber assay; assay type: functional, cell-based; details: Homo sapiens
HUVEC [21] = assay: Cytotoxicity against angiopoietin 1-stimulated HUVEC at > = 50 nM; assay type: cell-based; details: human
[22] = Antiangiogenic activity in HMVEC assessed as inhibition of FGF-induced proliferation; assay type: functional; details: Homo sapiens
HUVEC [23] = assay: Antiangiogenic activity in HUVEC assessed as inhibition of FGF-induced migration; assay type: functional, cell-based; details: Homo sapiens
[24] = Antitumor activity against human U251MG cells xenografted in po dosed athymic nude mouse assessed as tumor growth inhibition bid measured on day 29 relative to control; assay type: functional; details: U-251, po, 696 h, read-out: MED
A-375 [25] = assay: Antitumor activity against human A375 cells xenografted in athymic nude mouse assessed as tumor growth inhibition at 1 mg/kg, po bid measured on day 29 relative to control; assay type: functional; details: A-375, 696 h, read-out: GI
A-375 [26] = assay: Antitumor activity against human A375 cells xenografted in athymic nude mouse assessed as tumor growth inhibition at 10 mg/kg, po bid measured on day 29 relative to control; assay type: functional; details: A-375, 696 h, read-out: GI
A-375 [27] = assay: Antitumor activity against human A375 cells xenografted in athymic nude mouse assessed as complete tumor regression at 1 mg/kg, po bid; assay type: functional
Mus musculus = assay: Toxicity in athymic nude mouse bearing human A375 cells assessed as morbidity at 0.1 to 10 mg/kg, po; assay type: organism-based, A-375; design: dose 0.1-10 mg/kg, route oral; details: in vivo
P388 [28] = assay: Antitumor activity against mouse P388 cells xenografted in DBA/2 mouse assessed as mean survival at 30 mg/kg, po qd (reference value: 14 days); assay type: functional
P388 [29] = assay: Antitumor activity against mouse P388 cells xenografted in DBA/2 mouse assessed as mean survival at 30 mg/kg, po qd for 7 days followed by readministeration after 7 days; assay type: functional
P388 [30] = assay: Antitumor activity against mouse P388 cells xenografted in DBA/2 mouse assessed as mean survival at 30 mg/kg, po bid (reference value: 14 days); assay type: functional
[31] = molecular target: Vascular endothelial growth factor receptor 2 (Homo sapiens, UniProt P35968)
Description: Inhibition of human recombinant VEGF-R2 expressed in baculovirus expression system using GST-PLCgamma as substrate after 1 hr by time-resolved fluorescence analysis

[32] = Cmax in athymic nude mouse plasma xenografted with human A375 cells at 10 mg/kg, po

## CC(C)Cn1c2ccc(Nc3ncccn3)cc2c2c3c(c4c(c21)CCc1nn(C)cc1-4)C(=O)NC3 [CEP-11981]
[1]
  Activity: Non-toxic
[2]
  remaining at 2 h: 65%
[3]
  remaining at 2 h: 65%
[4]
  remaining at 2 h: 54%
[5]
  Vd: 1.3 L/kg
[6]
  clearance: 4.3 mL/min/kg
[7]
  Tmax: 2 h
[8]
  bioavailability: 44%
[9]
  clearance: 18 mL/min/kg
Aurora kinase A
  IC50: 42 nM
[10]
  IC50: 93 nM
[11]
  IC50: 48 nM
[12]
  IC50: 37 nM
[13]
  IC50: 89 nM
[14]
  IC50: 3 nM
[15]
  IC50: 5 nM
[16]
  inhibition: Active
[17]
  inhibition: Active
[18]
  inhibition: > 80%
[19]
  inhibition: > 80%
HUVEC [20]
  Activity: Active
HUVEC [21]
  Activity: Non-toxic
[22]
  EC50: 8 nM
HUVEC [23]
  EC50: 8 nM
[24]
  minimal effective dose: 3 mg/kg
A-375 [25]
  inhibition in vivo at 1 mg/kg: 73%
A-375 [26]
  inhibition in vivo at 10 mg/kg: 98%
A-375 [27]
  Activity: 20%
Mus musculus
  Activity: Non-toxic
P388 [28]
  MSD: 23 days
P388 [29]
  MSD: 18.5 days
P388 [30]
  MSD: 27.5 days
[31]
  IC50: 4 nM
[32]
  Cmax: 456 ng/mL

Source: ChEMBL document CHEMBL2010689 (J Med Chem, 2012)
